Measured values published in patent US8178506B2, “Oligomeric compounds and compositions for use in modulation of small non-coding RNAs” (Regulus Therapeutics Inc., priority 2003, dated 2012).
In the oligonucleotide strings, read from the 5' end, every base follows the letter of its sugar. An asterisk marks phosphorothioate; unmarked linkages are phosphodiester. Other units and linkages are bracketed, terminal groups are in braces. A string of capitals states the bases alone. e = 2'-O-(2-methoxyethyl) (MOE); [5mC] = 5-methylcytosine; d = 2'-deoxy (DNA)

Key:
T47Dp53 cells = assay: Cell cycle assay in T47Dp53 cells; assay type: cell-based, human; settings: 150 nM, 48 hours, relative to untreated control
[1] = tested on: preadipocytes / differentiating adipocytes; assay: Adipocyte differentiation assay, markers taken together; assay type: cell-based, human; settings: for expression levels of markers of adipocyte differentiation (TG, leptin, aP2, HSL, Glut4, PPARγ): preadipocytes, 250 nM, day nine post-transfection, relative to ISIS-29848; for expression of the adipocyte differentiation markers, compounds targeting mir-143 miRNA or pri-miRNA compared: preadipocytes (Table 20)

Substance: 327902 (antisense eG*eG*e[5mC]*eT*eG*eT*e[5mC]*eA*eA*eT*eT*e[5mC]*eA*eT*eA*eG*eG*eT*e[5mC]*eA*eG) [compound 327902]
- % cells in cell cycle phase G1 (T47Dp53 cells): 100%
- % cells in cell cycle phase G2/M (T47Dp53 cells): 102%
- % cells in cell cycle phase S (T47Dp53 cells): 98%
- % cells in cell cycle phase aneuploid (T47Dp53 cells): 97%
- % cells in cell cycle phase subG1 (T47Dp53 cells): 155%

Substance: 327905 (antisense e[5mC]*eA*eG*eA*e[5mC]*eT*e[5mC]*e[5mC]*eG*eG*eT*eG*eG*eA*eA*eT*eG*eA*eA*eG*eG*eA) [compound 327905]
- % cells in cell cycle phase G1 (T47Dp53 cells): 112%
- % cells in cell cycle phase G2/M (T47Dp53 cells): 104%
- % cells in cell cycle phase S (T47Dp53 cells): 80%
- % cells in cell cycle phase aneuploid (T47Dp53 cells): 103%
- % cells in cell cycle phase subG1 (T47Dp53 cells): 109%

Substance: 328759 (antisense eG*eA*eG*eG*eG*dA*dT*dT*dG*dT*dA*dT*dG*dA*dA*e[5mC]*eA*eT*e[5mC]*eT) [compound 328759]
- % cells in cell cycle phase G1 (T47Dp53 cells): 99%
- % cells in cell cycle phase G2/M (T47Dp53 cells): 108%
- % cells in cell cycle phase S (T47Dp53 cells): 93%
- % cells in cell cycle phase aneuploid (T47Dp53 cells): 109%
- % cells in cell cycle phase subG1 (T47Dp53 cells): 423%

Substance: ACTTTCGGTTATCTAGCTTTA [ISIS 327892] (chemistry not given here) [uniform 2′-MOE PS; targets mir-131-2/mir-9]
- expression levels of markers of adipocyte differentiation (TG, leptin, aP2, HSL, Glut4, PPARγ) [1]: significantly reduce the expression levels of 5 of 6 markers of adipocyte differentiation

Substance: TGAGCTACAGTGCTTCATCTCA [ISIS 327901] (chemistry not given here) [uniform 2′-MOE PS; targets mir-143]
- expression of all five markers of differentiation, dose response ([1]; differentiating adipocytes, 50, 100, 200 and 300 nM, 24 hours): dose responsive reduction of expression of all five markers of differentiation
- expression of the adipocyte differentiation markers, compounds targeting mir-143 miRNA or pri-miRNA compared [1]: more effective
- expression levels of markers of adipocyte differentiation (TG, leptin, aP2, HSL, Glut4, PPARγ) [1]: significantly reduce the expression levels of 5 of 6 markers of adipocyte differentiation

Substance: TGAGCTACAGTGCTTCATCTCA [ISIS 340927] (chemistry not given here) [5-10-7 2′-MOE gapmer PS; targets mature mir-143]
- expression of the adipocyte differentiation markers, compounds targeting mir-143 miRNA or pri-miRNA compared ([1]; listed as ISIS 340972): reduced expression of the adipocyte differentiation markers
